Data from DBAASP.
≈ marks a conversion by molar mass, not a printed value.

Assays:
Experiment in all cases: ≥ marks a high value that may be exact or a test limit, other limits are often not marked, values filed in µg/mL are converted to µM
[1] = tested on: Escherichia coli ATCC 25922
[2] = tested on: Enterococcus faecium 4W-9
Staphylococcus aureus MR = tested on: Staphylococcus aureus MR
[3] = tested on: Enterococcus faecalis 1F-1
[4] = tested on: Enterococcus faecium 5F-10
[5] = tested on: Bacillus subtilis ATCC 6051
[6] = tested on: Bacillus licheniformis ATCC 14580
[7] = tested on: Proteus mirabilis ATCC 35659
[8] = tested on: Pseudomonas aeruginosa PAO1
[9] = tested on: Bacillus cereus ATCC 14579
[10] = tested on: Salmonella enterica ATCC H9812
[11] = tested on: Bacillus amyloliquefaciens ATCC 23842
Enterococcus faecalis A4 = tested on: Enterococcus faecalis A4
[12] = tested on: Staphylococcus aureus ATCC 29213
[13] = tested on: Staphylococcus aureus 215
[14] = tested on: Escherichia coli ATCC 35218
[15] = tested on: Klebsiella pneumoniae NDM-1
Enterobacter cloacae = tested on: Enterobacter cloacae
Vibrio cholerae = tested on: Vibrio cholerae
[16] = tested on: Pseudomonas aeruginosa ATCC 27853
Escherichia coli UTI89 = tested on: Escherichia coli UTI89
[17] = tested on: Klebsiella pneumoniae ATCC 700603
Klebsiella pneumoniae = tested on: Klebsiella pneumoniae
Staphylococcus aureus = tested on: Staphylococcus aureus
Candida albicans = tested on: Candida albicans
Shigella flexneri = tested on: Shigella flexneri
Aeromonas hydrophila = tested on: Aeromonas hydrophila
Vibrio alginolyticus = tested on: Vibrio alginolyticus
Bacillus subtilis = tested on: Bacillus subtilis
Escherichia coli = tested on: Escherichia coli
Cryptococcus neoformans = tested on: Cryptococcus neoformans
Vibrio parahaemolyticus = tested on: Vibrio parahaemolyticus
Bacillus cereus = tested on: Bacillus cereus
[18] = tested on: Staphylococcus epidermidis
Pseudomonas fluorescens = tested on: Pseudomonas fluorescens
Pseudomonas aeruginosa = tested on: Pseudomonas aeruginosa
Bacillus cereus ACM 446 = tested on: Bacillus cereus ACM 446
Escherichia coli L361 = tested on: Escherichia coli L361
[19] = tested on: Staphylococcus aureus NCTC 6571
[20] = tested on: Salmonella enterica subsp. enterica serovar Salford IMVS 1710
Escherichia coli O9 = tested on: Escherichia coli O9
[21] = tested on: Listeria monocytogenes NCTC 7973
Enterococcus faecalis = tested on: Enterococcus faecalis
Escherichia coli UB1005 = tested on: Escherichia coli UB1005
[22] = tested on: Staphylococcus aureus SAP 0017
[23] = tested on: Staphylococcus aureus K147
[24] = tested on: Pseudomonas aeruginosa H187
Candida albicans CAN105 = tested on: Candida albicans CAN105

CC(C)C[C@H](NC(=O)[C@H](CC(C)C)NC(=O)[C@@H](N)CCC(=O)O)C(=O)N[C@@H](CO)C(=O)N[C@@H](C)C(=O)N[C@H](C(=O)N[C@@H](CC(=O)O)C(=O)O)C(C)C [ELLSAVD]
MIC [1]: 85.8 µM (≈ 64 µg/mL)
MIC [2]: ≥ 172 µM
MIC (Staphylococcus aureus MR): ≥ 172 µM
MIC [3]: ≥ 172 µM
MIC [4]: ≥ 172 µM
MIC [5]: ≥ 172 µM
MIC [6]: ≥ 172 µM
MIC [7]: ≥ 172 µM
MIC [8]: > 172 µM
MIC [9]: ≥ 172 µM
MIC [10]: ≥ 172 µM
MIC [11]: ≥ 172 µM
MIC (Enterococcus faecalis A4): ≥ 172 µM
MIC [12]: > 172 µM
MIC [13]: ≥ 172 µM

CC[C@H](C)[C@H](NC(=O)[C@@H](NC(=O)[C@@H]1CCCN1C(=O)[C@H](CO)NC(=O)[C@H](CC(C)C)NC(=O)[C@H](CCCCN)NC(=O)[C@H](CCCCN)NC(=O)[C@H](Cc1ccccc1)NC(=O)[C@H](CC(C)C)NC(=O)[C@H](CCCCN)NC(=O)[C@H](CCCCN)NC(=O)[C@H](CC(C)C)NC(=O)[C@H](CCCCN)NC(=O)[C@H](CCCCN)NC(=O)[C@H](CCCN=C(N)N)NC(=O)[C@@H](N)Cc1ccccc1)C(C)C)C(=O)N1CCC[C@H]1C(=O)N[C@@H](CC(C)C)C(=O)N[C@@H](CC(C)C)C(=O)N[C@@H](CCCCN)C(=O)N[C@@H](CC(C)C)C(=O)NCC(N)=O [FRKKLKKLFKKLSPVIPLLKLG]
MIC [1]: 2 µM (≈ 5.19 µg/mL)
MIC [14]: 2 µM (≈ 5.19 µg/mL)
MIC [15]: 2.83 µM (≈ 7.34 µg/mL)
MIC (Enterobacter cloacae): 4 µM (≈ 10.4 µg/mL)
MIC (Vibrio cholerae): 4 µM (≈ 10.4 µg/mL)
MIC [16]: 2 µM (≈ 5.19 µg/mL)
MIC [8]: 2 µM (≈ 5.19 µg/mL)
MIC (Escherichia coli UTI89): 2 µM (≈ 5.19 µg/mL)
MIC [17]: 2 µM (≈ 5.19 µg/mL)
MIC (Klebsiella pneumoniae): 2 µM (≈ 5.19 µg/mL)

CSCC[C@H](NC(=O)[C@H](CCCCN)NC(=O)[C@H](CCC(N)=O)NC(=O)[C@H](CCSC)NC(=O)[C@H](CC(N)=O)NC(=O)[C@H](CCCN=C(N)N)NC(=O)[C@H](CC(N)=O)NC(=O)[C@H](Cc1ccc(O)cc1)NC(=O)[C@H](CCCCN)NC(=O)[C@H](Cc1ccc(O)cc1)NC(=O)[C@H](CC(=O)O)NC(=O)[C@H](CCCCN)NC(=O)[C@H](Cc1c[nH]c2ccccc12)NC(=O)[C@H](C)NC(=O)[C@H](CCC(N)=O)NC(=O)[C@H](CCCN=C(N)N)NC(=O)[C@H](C)NC(=O)CNC(=O)[C@@H](N)CCCCN)C(=O)N[C@@H](CC(N)=O)C(=O)N[C@@H](CCC(N)=O)C(=O)NCC(=O)N[C@@H](Cc1ccc(O)cc1)C(=O)NCC(=O)N[C@@H](CCC(N)=O)C(=O)N[C@@H](CCC(N)=O)C(=O)NCC(=O)NCC(=O)O [KGARQAWKDYKYNRNMQKMNQGYGQQGG]
MIC (Staphylococcus aureus): > 50 µM
MIC (Candida albicans): > 50 µM
MIC (Shigella flexneri): ≥ 50 µM
MIC (Aeromonas hydrophila): ≥ 50 µM
MIC (Vibrio alginolyticus): ≥ 50 µM
MIC (Bacillus subtilis): ≥ 35.4 µM
MIC (Escherichia coli): > 50 µM
MIC (Cryptococcus neoformans): 17.7 µM (≈ 58.5 µg/mL)
MIC (Vibrio parahaemolyticus): ≥ 50 µM
MIC (Bacillus cereus): ≥ 50 µM
MIC [18]: ≥ 50 µM
MIC (Pseudomonas fluorescens): ≥ 50 µM
MIC (Pseudomonas aeruginosa): > 50 µM

CC[C@H](C)[C@H](NC(=O)[C@H](CO)NC(=O)[C@@H]1CCCN1C(=O)[C@H](C)NC(=O)CNC(=O)[C@H](CC(C)C)NC(=O)[C@H](CCCCN)NC(=O)[C@@H](N)CCCCN)C(=O)N[C@H](C(=O)N[C@@H](CS)C(=O)N[C@H](C(=O)N[C@@H](CCCN=C(N)N)C(=O)N[C@@H](CCCN=C(N)N)C(=O)N[C@@H](C)C(=O)N[C@@H](Cc1ccccc1)C(=O)N[C@@H](C)C(=O)O)C(C)C)[C@@H](C)O [KKLGAPSITCVRRAFA]
MIC (Bacillus cereus ACM 446): ≥ 100 µM
MIC (Escherichia coli L361): ≥ 50 µM
MIC [19]: ≥ 100 µM
MIC [20]: ≥ 100 µM
MIC (Escherichia coli O9): ≥ 60 µM
MIC [21]: ≥ 40 µM
MIC (Pseudomonas fluorescens): ≥ 100 µM

CC[C@H](C)[C@H](NC(=O)CNC(=O)[C@@H](NC(=O)[C@H](CCCCN)NC(=O)[C@H](CCCCN)NC(=O)[C@H](Cc1ccccc1)NC(=O)[C@H](CC(C)C)NC(=O)[C@H](CCCCN)NC(=O)[C@H](Cc1c[nH]c2ccccc12)NC(=O)[C@@H](N)CCCCN)[C@@H](C)CC)C(=O)NCC(=O)N[C@@H](C)C(=O)N[C@H](C(=O)N[C@@H](CC(C)C)C(=O)N[C@H](C(=O)N[C@H](C(=O)NCC(=O)N[C@@H](CC(C)C)C(=O)N1CCC[C@H]1C(=O)N[C@@H](C)C(=O)N[C@@H](CC(C)C)C(=O)N[C@H](C(=O)N[C@@H](CO)C(=O)O)[C@@H](C)CC)[C@@H](C)O)[C@@H](C)O)C(C)C [KWKLFKKIGIGAVLTTGLPALIS]
MIC (Enterococcus faecalis): 26.1 µM (≈ 64 µg/mL)
MIC (Escherichia coli UB1005): 5.3 µM (≈ 13 µg/mL)
MIC [22]: 26.1 µM (≈ 64 µg/mL)
MIC [23]: 26.1 µM (≈ 64 µg/mL)
MIC [24]: 13 µM (≈ 32 µg/mL)
MIC (Candida albicans CAN105): 26.1 µM (≈ 64 µg/mL)
MIC [18]: 17.5 µM (≈ 43 µg/mL)
